This note sets out measurements from patent US10399940B2, “Substituted pyrrolidines and methods of use” (AbbVie S.à.r.l., priority 2016, dated 2019).

Like-named read-outs stand apart in the source and are kept apart here.

For the experiment, the target named is T1, F508delCFTR (Homo sapiens, UniProt P13569, DEL508-508).
T1 construct: expressed in transfected cells; host or cells: CFBE41o- (human lung derived epithelial cell line), doxycycline-inducible expression
Put plainly: Cell Surface Expression-Horse Radish Peroxidase (CSE-HRP) assay. The format is cell-based. The settings on record: CFBE41o-F508delCFTR-HRP cells; for Maximum % activity (with co-corrector): with co-corrector (2 μM); for Maximum % activity (with co-corrector) / Maximum % activity (without co-corrector): normalized to on-plate positive control, highest concentration 20 μM. Summed up: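 Surface F508delCFTR-HRP was read by luminol luminescence after 18–24 h compound exposure at 33 °C, without or with 2 μM co-corrector. Doses were eight 3-fold steps from 20 μM, in doxycycline-induced (0.5 μg/mL, 72 h) CFBE41o- cells. % activity was scaled to the on-plate 2 μM positive control minus DMSO; EC50 came from a variable-slope sigmoid fit.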

Setting [1] is: test compound without co-corrector, 18-24 hours at 33° C., read-out: EC50 (without co-corrector).
Where [2] appears, read: with co-corrector (2 μM of 3-[(2R,4R)-4-({[1-(2,2-difluoro-1,3-benzodioxol-5-yl)cyclopropyl]carbonyl}amino)-7-methoxy-3,4-dihydro-2H-chromen-2-yl]benzoic acid), read-out: EC50 (with co-corrector).

T1 sequence (P13569 with tags, fused parts or gaps DEL508-508): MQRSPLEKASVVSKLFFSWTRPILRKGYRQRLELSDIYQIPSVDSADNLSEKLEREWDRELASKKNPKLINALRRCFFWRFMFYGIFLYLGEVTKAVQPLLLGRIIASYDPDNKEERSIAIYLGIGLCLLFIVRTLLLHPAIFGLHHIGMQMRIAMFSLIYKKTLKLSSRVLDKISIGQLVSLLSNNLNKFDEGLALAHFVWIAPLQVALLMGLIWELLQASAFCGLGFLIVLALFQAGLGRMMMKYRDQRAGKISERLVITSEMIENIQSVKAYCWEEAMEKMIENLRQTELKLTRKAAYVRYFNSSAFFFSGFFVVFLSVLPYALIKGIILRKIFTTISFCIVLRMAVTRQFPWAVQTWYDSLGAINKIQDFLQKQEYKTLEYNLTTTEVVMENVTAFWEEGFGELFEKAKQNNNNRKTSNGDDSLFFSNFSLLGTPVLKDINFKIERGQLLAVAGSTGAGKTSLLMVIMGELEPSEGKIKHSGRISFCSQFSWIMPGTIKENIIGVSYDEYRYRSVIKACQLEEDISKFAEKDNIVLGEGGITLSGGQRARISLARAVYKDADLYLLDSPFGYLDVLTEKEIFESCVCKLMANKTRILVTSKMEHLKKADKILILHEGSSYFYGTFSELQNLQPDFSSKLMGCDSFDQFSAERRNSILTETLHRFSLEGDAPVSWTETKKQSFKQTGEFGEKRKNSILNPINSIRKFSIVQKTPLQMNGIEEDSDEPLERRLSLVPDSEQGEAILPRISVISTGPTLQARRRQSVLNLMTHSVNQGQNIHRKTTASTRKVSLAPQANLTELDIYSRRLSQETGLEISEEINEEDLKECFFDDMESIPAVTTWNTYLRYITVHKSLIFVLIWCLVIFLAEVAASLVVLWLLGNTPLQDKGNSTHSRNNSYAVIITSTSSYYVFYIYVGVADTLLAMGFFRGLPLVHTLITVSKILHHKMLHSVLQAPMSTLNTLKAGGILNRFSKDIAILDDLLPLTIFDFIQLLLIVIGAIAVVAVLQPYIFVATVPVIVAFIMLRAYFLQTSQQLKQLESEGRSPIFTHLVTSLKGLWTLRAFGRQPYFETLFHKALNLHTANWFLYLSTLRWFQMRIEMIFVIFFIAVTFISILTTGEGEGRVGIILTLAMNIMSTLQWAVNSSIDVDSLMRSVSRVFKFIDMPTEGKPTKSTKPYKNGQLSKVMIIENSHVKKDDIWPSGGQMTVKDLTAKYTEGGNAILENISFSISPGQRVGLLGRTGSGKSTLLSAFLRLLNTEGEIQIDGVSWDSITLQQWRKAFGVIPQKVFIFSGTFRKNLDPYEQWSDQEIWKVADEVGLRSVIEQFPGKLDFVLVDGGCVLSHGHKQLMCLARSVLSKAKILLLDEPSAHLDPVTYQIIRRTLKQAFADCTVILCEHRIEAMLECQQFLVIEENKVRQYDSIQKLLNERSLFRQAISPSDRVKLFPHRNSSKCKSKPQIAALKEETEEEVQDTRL

What is called EC50 is the midpoint of the concentration-response curve. For `COc1ncc(C(F)(F)F)cc1CO[C@H]1[C@H](C(C)(C)C)[C@@H](C(=O)O)N(C(=O)[C@@H]2CCCCO2)[C@H]1c1ccccc1C1=CCN(C)CC1` [Example 192, (2S,3R,4S,5S)-3-tert-butyl-4-{[2-methoxy-5-(trifluoromethyl)pyridin-3-yl]methoxy}-5-[2-(1-methyl-1,2,3,6-tetrahydropyridin-4-yl)phenyl]-1-[(2S)-oxane-2-carbonyl]pyrrolidine-2-carboxylic acid], the “Maximum % activity (with co-corrector)” value was “++ (≥150 and <350)”; the “Maximum % activity (without co-corrector)” value is on record as “+ (<100)”. Further, the EC50 under setting [1] lay within 1000 to 10000 nM. Further, under setting [2], the 50% effective concentration (EC50) lay within 1000 to 10000 nM.
Turning to `COc1ncc(C(F)(F)F)cc1CO[C@H]1[C@H](C(C)(C)C)[C@@H](C(=O)O)N(C(=O)[C@@H]2CCCCO2)[C@H]1c1ccccc1-c1cnn(C)c1` [Example 193, (2S,3R,4S,5S)-3-tert-butyl-4-{[2-methoxy-5-(trifluoromethyl)pyridin-3-yl]methoxy}-5-[2-(1-methyl-1H-pyrazol-4-yl)phenyl]-1-[(2S)-oxane-2-carbonyl]pyrrolidine-2-carboxylic acid], the “Maximum % activity (with co-corrector)” value was “+++ (≥350)”; the “Maximum % activity (without co-corrector)” value was “++ (≥100 and <200)”. In addition, the concentration giving a half-maximal response (EC50) under setting [1] was 1000 to 10000 nM. The EC50 under setting [2] was 1000 to 10000 nM.
With `COc1ncc(C(F)(F)F)cc1CO[C@H]1[C@H](C(C)(C)C)[C@@H](C(=O)O)N(C(=O)[C@@H]2CCCCO2)[C@H]1c1ccccc1-c1cccc(N(C)C)c1` [Example 194, (2S,3R,4S,5S)-3-tert-butyl-5-[3′-(dimethylamino) [1,1′-biphenyl]-2-yl]-4-{[2-methoxy-5-(trifluoromethyl)pyridin-3-yl]methoxy}-1-[(2S)-oxane-2-carbonyl]pyrrolidine-2-carboxylic acid], the “Maximum % activity (with co-corrector)” value is “+++ (≥350)” and the “Maximum % activity (without co-corrector)” value was “+++ (≥200)”. In addition, the EC50 under setting [1] fell in the range of 1000 to 10000 nM. For the same compound, the EC50 under setting [2] was < 1000 nM.
The like results for `COc1ncc(C(F)(F)F)cc1CO[C@H]1[C@H](C(C)(C)C)[C@@H](C(=O)O)N(C(=O)[C@@H]2CCCCO2)[C@H]1c1ccccc1-c1ccccc1C` [Example 195, (2S,3R,4S,5S)-3-tert-butyl-4-{[2-methoxy-5-(trifluoromethyl)pyridin-3-yl]methoxy}-5-(2′-methyl[1,1′-biphenyl]-2-yl)-1-[(2S)-oxane-2-carbonyl]pyrrolidine-2-carboxylic acid] were, in that order, “+++ (≥350)”, “+++ (≥200)”, 1000 to 10000 nM and 1000 to 10000 nM.
In the case of `COc1ncc(C(F)(F)F)cc1CO[C@H]1[C@H](C(C)(C)C)[C@@H](C(=O)O)N(C(=O)[C@@H]2CCCCO2)[C@H]1c1ccccc1-c1ccncc1` [Example 196, (2S,3R,4S,5S)-3-tert-butyl-4-{[2-methoxy-5-(trifluoromethyl)pyridin-3-yl]methoxy}-1-[(2S)-oxane-2-carbonyl]-5-[2-(pyridin-4-yl)phenyl]pyrrolidine-2-carboxylic acid], the “Maximum % activity (with co-corrector)” value is listed as “+++ (≥350)”; the “Maximum % activity (without co-corrector)” value is “++ (≥100 and <200)”. Under setting [1], the 50% effective concentration (EC50) fell in the range of 1000 to 10000 nM. Further, under setting [2], the EC50 lay in the range of 1000 to 10000 nM.
As to `COc1ncc(C(F)(F)F)cc1CO[C@H]1[C@H](C(C)(C)C)[C@@H](C(=O)O)N(C(=O)[C@@H]2CCCCO2)[C@H]1c1ccccc1-c1cncnc1` [Example 197, (2S,3R,4S,5S)-3-tert-butyl-4-{[2-methoxy-5-(trifluoromethyl)pyridin-3-yl]methoxy}-1-[(2S)-oxane-2-carbonyl]-5-[2-(pyrimidin-5-yl)phenyl]pyrrolidine-2-carboxylic acid], the “Maximum % activity (with co-corrector)” value was “++ (≥150 and <350)”; the “Maximum % activity (without co-corrector)” value is listed as “+ (<100)”. For the same compound, the EC50 under setting [1] was 1000 to 10000 nM. Further, the EC50 under setting [2] lay within 1000 to 10000 nM.
`COc1ncc(C(F)(F)F)cc1CO[C@H]1[C@H](C(C)(C)C)[C@@H](C(=O)O)N(C(=O)[C@@H]2CCCCO2)[C@H]1c1ccccc1-c1ccoc1` [Example 198, (2S,3R,4S,5S)-3-tert-butyl-5-[2-(furan-3-yl)phenyl]-4-{[2-methoxy-5-(trifluoromethyl)pyridin-3-yl]methoxy}-1-[(2S)-oxane-2-carbonyl]pyrrolidine-2-carboxylic acid]: the “Maximum % activity (with co-corrector)” value is “+++ (≥350)” and the “Maximum % activity (without co-corrector)” value is reported as “+++ (≥200)”. Also, under setting [1], the EC50 lay in the range of 1000 to 10000 nM. The concentration for a half-maximal effect (EC50) under setting [2] fell in the range of 1000 to 10000 nM.
For `COc1ncc(C(F)(F)F)cc1CO[C@H]1[C@H](C(C)(C)C)[C@@H](C(=O)O)N(C(=O)[C@@H]2CCCCO2)[C@H]1c1ccccc1-c1ccn(C)c1` [Example 199, (2S,3R,4S,5S)-3-tert-butyl-4-{[2-methoxy-5-(trifluoromethyl)pyridin-3-yl]methoxy}-5-[2-(1-methyl-1H-pyrrol-3-yl)phenyl]-1-[(2S)-oxane-2-carbonyl]pyrrolidine-2-carboxylic acid], the “Maximum % activity (with co-corrector)” value is “+++ (≥350)” and the “Maximum % activity (without co-corrector)” value is on record as “+++ (≥200)”. Besides, the EC50 under setting [1] fell in the range of 1000 to 10000 nM. The EC50 under setting [2] was 1000 to 10000 nM.
As to `COc1ncc(C(F)(F)F)cc1CO[C@H]1[C@H](C(C)(C)C)[C@@H](C(=O)O)N(C(=O)[C@@H]2CCCCO2)[C@H]1c1ccccc1-c1ccccc1Cl` [Example 200, (2S,3R,4S,5S)-3-tert-butyl-5-(2′-chloro[1,1′-biphenyl]-2-yl)-4-{[2-methoxy-5-(trifluoromethyl)pyridin-3-yl]methoxy}-1-[(2S)-oxane-2-carbonyl]pyrrolidine-2-carboxylic acid], the “Maximum % activity (with co-corrector)” value is on record as “+++ (≥350)” and the “Maximum % activity (without co-corrector)” value is “+++ (≥200)”. The EC50 under setting [1] was 1000 to 10000 nM. Moreover, the EC50 under setting [2] was < 1000 nM.
The like results for `COc1ncc(C(F)(F)F)cc1CO[C@H]1[C@H](C(C)(C)C)[C@@H](C(=O)O)N(C(=O)[C@@H]2CCCCO2)[C@H]1c1ccccc1-c1cccc(OC(F)(F)F)c1` [Example 201, (2S,3R,4S,5S)-3-tert-butyl-4-{[2-methoxy-5-(trifluoromethyl)pyridin-3-yl]methoxy}-1-[(2S)-oxane-2-carbonyl]-5-[3′-(trifluoromethoxy) [1,1′-biphenyl]-2-yl]pyrrolidine-2-carboxylic acid] were, in that order, “+++ (≥350)”, “+++ (≥200)”, 1000 to 10000 nM and 1000 to 10000 nM.
For the compound `COc1ncc(C(F)(F)F)cc1CO[C@H]1[C@H](C(C)(C)C)[C@@H](C(=O)O)N(C(=O)[C@@H]2CCCCO2)[C@H]1c1ccccc1-c1ccc(Cl)cc1` [Example 202, (2S,3R,4S,5S)-3-tert-butyl-5-(4′-chloro[1,1′-biphenyl]-2-yl)-4-{[2-methoxy-5-(trifluoromethyl)pyridin-3-yl]methoxy}-1-[(2S)-oxane-2-carbonyl]pyrrolidine-2-carboxylic acid], the “Maximum % activity (with co-corrector)” value was “+++ (≥350)” and the “Maximum % activity (without co-corrector)” value is given as “+++ (≥200)”. The EC50 under setting [1] is 1000 to 10000 nM. Besides, under setting [2], the EC50 was 1000 to 10000 nM.
